Results on one compound are retold here after patent US7833795B2, “Assessment of cardiovascular risk using isoprostane biomarkers and COX-2 selective inhibitors” (The Trustees of the University of Pennsylvania, priority 2004, dated 2010).

One series has as its target COX-1 (Homo sapiens, UniProt P23219). The settings on record: in vivo. The procedure: (§1) Study Design: This randomized, double-blind, placebo-controlled protocol was approved by the Institutional Review Board of the University of Pennsylvania Health System and by the Advisory Council of the General Clinical Research Center (University of Pennsylvania, Philadelphia). Written informed consent was obtained from all study volunteers. […] Routine hematology, biochemistry, and urinalysis were assessed at time of screening and at 24 hours after administration of the drugs on completion of the study.
(§2) Measurements were performed immediately before the administration of drug (0 hrs) and 4 hours thereafter. […] A subset of the volunteers (n=5) progressed through the entire protocol on five occasions, each separated by two weeks, to assess intraindividual variability in drug response in five replicates.
(§3) Statistical analysis: The primary response variables were: i) ex vivo COX-2 inhibition, expressed as the ratio of postdrug to predrug plasma PGE2; ii) ex vivo COX-1 inhibition, expressed as the ratio of postdrug to predrug serum TxB2; iii) urinary PGI-M inhibition, expressed as the ratio of concentration post drug to post placebo administration; iv) urinary Tx-M inhibition, expressed as the ratio of concentration post drug to post placebo administration; and v) plasma drug concentrations four hours post drug administration. […]

In the next series the target is COX-2 (Homo sapiens, UniProt P35354). The settings on record: in vivo. As for the experimental part: as §1, §2, §3
COX-2, sequence (P35354 18-604): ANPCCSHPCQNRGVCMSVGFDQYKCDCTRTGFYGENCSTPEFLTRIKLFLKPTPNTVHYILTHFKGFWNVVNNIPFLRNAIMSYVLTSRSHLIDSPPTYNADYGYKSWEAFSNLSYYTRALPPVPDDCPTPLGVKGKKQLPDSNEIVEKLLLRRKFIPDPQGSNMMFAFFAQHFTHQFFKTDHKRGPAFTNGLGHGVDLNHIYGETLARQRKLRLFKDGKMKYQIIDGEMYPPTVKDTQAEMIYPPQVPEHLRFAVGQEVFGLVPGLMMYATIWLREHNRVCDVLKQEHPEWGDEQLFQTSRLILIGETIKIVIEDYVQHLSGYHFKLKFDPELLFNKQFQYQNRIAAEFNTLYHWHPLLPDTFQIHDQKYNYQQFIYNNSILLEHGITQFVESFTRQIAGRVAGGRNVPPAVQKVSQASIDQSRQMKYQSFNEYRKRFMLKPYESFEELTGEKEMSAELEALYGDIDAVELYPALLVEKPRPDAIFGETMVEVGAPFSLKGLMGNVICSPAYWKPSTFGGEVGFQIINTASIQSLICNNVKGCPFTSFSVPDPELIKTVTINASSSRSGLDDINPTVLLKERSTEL
Another series concerns PGI2 biosynthesis. As to the kind of experiment: Urinary 2,3-dinor-6-keto PGF1α (PGI-M) in volunteers. The series is classed as in vivo, human. The settings on record: single dose (rofecoxib 25 mg, celecoxib 200 mg), 4 hours. The text has this:
(§4) Written informed consent was obtained from all study volunteers.
(§5) The coefficients of variation for both assays were <10%.
(§6) All variables were log transformed to approximate normality. Three extreme outlying datapoints were removed.

A further series concerns TxA2 formation. The series is described as follows: Urinary 11-dehydro TxB2 (Tx-M) in volunteers. The series is classed as in vivo, human.
Text: as §4, §5, §6

Series [1] can be described thus: Plasma drug concentrations by LC tandem MS. In kind it is in vivo, human. Conditions: for concentration at 4 h: human, plasma, 4 hours after dosing, single dose (rofecoxib 25 mg, celecoxib 200 mg).
For series [2] the following is noted: patients receiving rofecoxib (25 mg/day), as early as one month; cited from earlier work.

Where two headings read alike, the source gives them in different places.

COX-1, sequence (P23219 24-599): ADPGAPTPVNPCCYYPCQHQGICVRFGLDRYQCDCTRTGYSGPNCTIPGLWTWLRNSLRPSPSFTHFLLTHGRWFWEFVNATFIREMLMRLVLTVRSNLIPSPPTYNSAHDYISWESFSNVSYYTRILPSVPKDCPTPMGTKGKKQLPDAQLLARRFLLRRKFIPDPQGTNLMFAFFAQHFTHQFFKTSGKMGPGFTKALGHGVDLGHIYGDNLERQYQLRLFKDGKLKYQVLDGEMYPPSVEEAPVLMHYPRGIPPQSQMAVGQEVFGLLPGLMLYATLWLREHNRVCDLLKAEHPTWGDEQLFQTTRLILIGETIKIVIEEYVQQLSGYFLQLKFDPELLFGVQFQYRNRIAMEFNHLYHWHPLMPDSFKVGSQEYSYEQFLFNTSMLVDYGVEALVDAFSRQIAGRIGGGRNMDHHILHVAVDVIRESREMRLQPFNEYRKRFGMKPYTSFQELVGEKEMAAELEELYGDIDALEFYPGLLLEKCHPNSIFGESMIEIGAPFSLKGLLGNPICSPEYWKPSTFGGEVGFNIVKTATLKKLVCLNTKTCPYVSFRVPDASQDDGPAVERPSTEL

Turning to `CS(=O)(=O)c1ccc(C2=C(c3ccccc3)C(=O)OC2)cc1` [rofecoxib], the “COX-1 derived serum TxB2” value at COX-1 is “failed to inhibit significantly”. In addition, the “degree of inhibition of COX-2 dependent PGE2 formation ex vivo” value on COX-2 was 44.8%. Also, in the series on PGI2 biosynthesis, the “urinary PGI-M compared to placebo” value is recorded as “depressed urinary PGI-M”. Besides, the “COX-1 inhibition in vivo (urinary Tx-M) in Pro17Leu variant of COX-1” value with TxA2 formation (rofecoxib 25 mg) is “absence of COX-1 inhibition in vivo”. For the same compound, the “excretion of urinary Tx-M compared to placebo” value with TxA2 formation (single dose (rofecoxib 25 mg, celecoxib 200 mg), 4 hours) is reported as “not excretion of urinary Tx-M”. Further, the concentration at 4 h in series [1] (read-out: plasma drug concentration, median) was 215 ng/mL; in series [1] (read-out: plasma drug concentration, range) it was 115 to 658 ng/mL. In addition, the “drop in plasma concentration per unit increase in BMI” value in series [1] (rofecoxib 25 mg, 4 hours) was “about 2%”. In series [2], the “elevation of blood pressure” value is 3-4 mm Hg.
